In patent publication US20250290928A1, “METHOD, KIT AND DEVICE FOR DETECTING EXTRACELLULAR VESICLES” (priority 2022, published 2025):
*: point of attachment. 5FAM = O=C1OC2(c3ccc(O)cc3Oc3cc(O)ccc32)c2ccc(C(=O)*)cc21; TQ2 = quencher

Experiments:
[1] = test system: MMP14 in the HT1080 culture supernatants and the culture medium samples; test: Digital detection of MMP14 active component in HT1080 culture supernatants, culture media and recovered liquids in wells; format: biochemical, Human; conditions: qEV recovered liquid, 4 hours of reaction
Procedure: (§1) In addition, for detection of MMP14 activity, 1 mM Custom #1 was diluted with the buffer (4) to prepare a MMP14 detection solution containing 5 μM Custom #1 and 2 μM Alexa Fluor 647.

[2] = target: T1, MMP14 in the HT1080 culture supernatants and the culture medium samples (Homo sapiens, UniProt P50281); test: as above; format: biochemical; conditions: for MMP14 active component concentration: HT1080 culture Present
T1 construct: host or cells: HT1080 culture supernatant
Procedure: as §1

## [5-FAM]GRIGFLRTAK(TQ2)[OH] (5FAM-GRIGFLRTAK(TQ2)-OH) [Custom #1]
[1]; Exo-FBS, Fraction # 9
  Number of positives: 14,130
  Positive ratio: 0.5051
[1]; Exo-FBS, Fraction # 10
  Expected value λ: 1.421
  Number of positives: 21,264
  Positive ratio: 0.7586
[1]; Exo-FBS, Fraction # 11
  Expected value λ: 1.453
  Number of positives: 21,512
  Positive ratio: 0.7661
[1]; Exo-FBS, Fraction # 12
  Expected value λ: 1.465
  Number of positives: 21,591
  Positive ratio: 0.7689
[1]; Exo-FBS, Fraction # 13
  Expected value λ: 1.3102
  Number of positives: 20,505
  Positive ratio: 0.7302
[1]; Exo-FBS, Fraction # 14
  Expected value λ: 1.962
  Number of positives: 24,077
  Positive ratio: 0.8594
[1]; Exo-FBS, Fraction # 15
  Expected value λ: 3.133
  Number of positives: 26,856
  Positive ratio: 0.9564
[1]; MEM, Fraction # 7
  Expected value λ: 0.3978
  Number of positives: 9,216
  Positive ratio: 0.3282
[1]; MEM, Fraction # 8
  Expected value λ: 0.1873
  Number of positives: 4,791
  Positive ratio: 0.1708
[1]; MEM, Fraction # 9
  Expected value λ: 0.1593
  Number of positives: 4,129
  Positive ratio: 0.1472
[1]; MEM, Fraction # 10
  Expected value λ: 0.0176
  Number of positives: 490
  Positive ratio: 0.01745
[1]; MEM, Fraction # 11
  Expected value λ: 0.01104
  Number of positives: 308
  Positive ratio: 0.01098
[1]; MEM, Fraction # 12
  Expected value λ: 0.01161
  Number of positives: 324
  Positive ratio: 0.01154
[1]; MEM, Fraction # 13
  Expected value λ: 0.02444
  Number of positives: 678
  Positive ratio: 0.02415
[1]; MEM, Fraction # 14
  Expected value λ: 0.00075
  Number of positives: 21
  Positive ratio: 0.00075
[2]; Experiment condition (I): FBS, only centrifugation, Reaction 4 hr
  MMP14 active component concentration: 3.611e+11 mL⁻¹
[2]; Experiment condition (I): FBS, only centrifugation, Reaction 24 hr
  MMP14 active component concentration: 3.753e+11 mL⁻¹
[2]; Experiment condition (II): FBS, centrifugation + filtration, Reaction 4 hr
  MMP14 active component concentration: 3.042e+11 mL⁻¹
[2]; Experiment condition (II): FBS, centrifugation + filtration, Reaction 24 hr
  MMP14 active component concentration: 3.0889e+11 mL⁻¹
[2]; Experiment condition (IV): Exo-FBS, only centrifugation, Reaction 4 hr
  MMP14 active component concentration: 2.013e+11 mL⁻¹
[2]; Experiment condition (IV): Exo-FBS, only centrifugation, Reaction 24 hr
  MMP14 active component concentration: 1.981e+11 mL⁻¹
[2]; Experiment condition (V): Exo-FBS, centrifugation + filtration, Reaction 4 hr
  MMP14 active component concentration: 2.275e+11 mL⁻¹
[2]; Experiment condition (V): Exo-FBS, centrifugation + filtration, Reaction 24 hr
  MMP14 active component concentration: 2.309e+11 mL⁻¹
[2]; Experiment condition (VII): MEM, only centrifugation, Reaction 4 hr
  MMP14 active component concentration: 1.341e+09 mL⁻¹
[2]; Experiment condition (VII): MEM, only centrifugation, Reaction 24 hr
  MMP14 active component concentration: 4.02e+09 mL⁻¹
[2]; Experiment condition (VIII): MEM, centrifugation + filtration, Reaction 4 hr
  MMP14 active component concentration: 2.057e+09 mL⁻¹
[2]; Experiment condition (VIII): MEM, centrifugation + filtration, Reaction 24 hr
  MMP14 active component concentration: 4.426e+09 mL⁻¹
[2]; HT1080 culture supernatant recovered with exoEasy, Exo-FBS, Reaction 4 hr
  MMP14 extracellular vesicle concentration: 1.39e+11 mL⁻¹
[2]; HT1080 culture supernatant recovered with exoEasy, Exo-FBS, Reaction 24 hr
  MMP14 extracellular vesicle concentration: 2.053e+11 mL⁻¹
[2]; HT1080 culture supernatant recovered with exoEasy, MEM, Reaction 4 hr
  MMP14 extracellular vesicle concentration: 1.885e+09 mL⁻¹
[2]; HT1080 culture supernatant recovered with exoEasy, MEM, Reaction 24 hr
  MMP14 extracellular vesicle concentration: 4.428e+09 mL⁻¹
[2]; qEV recovered liquid, Exo-FBS, Fraction # 8, 4 hours of reaction
  MMP14 extracellular vesicle concentration: 1.1833e+10 mL⁻¹
[2]; qEV recovered liquid, Exo-FBS, Fraction # 9, 4 hours of reaction
  MMP14 extracellular vesicle concentration: 2.8135e+10 mL⁻¹
[2]; qEV recovered liquid, Exo-FBS, Fraction # 10, 4 hours of reaction
  MMP14 extracellular vesicle concentration: 5.6859e+10 mL⁻¹
[2]; qEV recovered liquid, Exo-FBS, Fraction # 11, 4 hours of reaction
  MMP14 extracellular vesicle concentration: 5.8114e+10 mL⁻¹
[2]; qEV recovered liquid, Exo-FBS, Fraction # 12, 4 hours of reaction
  MMP14 extracellular vesicle concentration: 5.8598e+10 mL⁻¹
[2]; qEV recovered liquid, Exo-FBS, Fraction # 13, 4 hours of reaction
  MMP14 extracellular vesicle concentration: 5.2408e+10 mL⁻¹
[2]; qEV recovered liquid, Exo-FBS, Fraction # 14, 4 hours of reaction
  MMP14 extracellular vesicle concentration: 7.8483e+10 mL⁻¹
[2]; qEV recovered liquid, Exo-FBS, Fraction # 15, 4 hours of reaction
  MMP14 extracellular vesicle concentration: 1.2532e+11 mL⁻¹
[2]; qEV recovered liquid, MEM, Fraction # 7, 4 hours of reaction
  MMP14 extracellular vesicle concentration: 1.5912e+10 mL⁻¹
[2]; qEV recovered liquid, MEM, Fraction # 8, 4 hours of reaction
  MMP14 extracellular vesicle concentration: 7.493e+09 mL⁻¹
[2]; qEV recovered liquid, MEM, Fraction # 9, 4 hours of reaction
  MMP14 extracellular vesicle concentration: 6.37e+09 mL⁻¹
[2]; qEV recovered liquid, MEM, Fraction # 10, 4 hours of reaction
  MMP14 extracellular vesicle concentration: 7.04e+08 mL⁻¹
[2]; qEV recovered liquid, MEM, Fraction # 11, 4 hours of reaction
  MMP14 extracellular vesicle concentration: 4.42e+08 mL⁻¹
[2]; qEV recovered liquid, MEM, Fraction # 12, 4 hours of reaction
  MMP14 extracellular vesicle concentration: 4.64e+08 mL⁻¹
[2]; qEV recovered liquid, MEM, Fraction # 13, 4 hours of reaction
  MMP14 extracellular vesicle concentration: 9.78e+08 mL⁻¹
[2]; qEV recovered liquid, MEM, Fraction # 14, 4 hours of reaction
  MMP14 extracellular vesicle concentration: 3e+07 mL⁻¹
